Reference: PubChem BioAssay (NCI)
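Protocol summary: plate cells (96-well), add compound at 5 concentrations, incubate 48 h, interpolate endpoints linearly. GI50 = concentration required for 50% inhibition of growth. At the TGI there is no net growth.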

Legend:
Test in all cases: growth of human tumour cells (NCI), 48 h
[1] = test system: CAKI-1 renal
[2] = test system: EKVX NSCLC
[3] = test system: HCT-15 colon
[4] = test system: HOP-62 NSCLC
[5] = test system: OVCAR-4 ovarian
[6] = test system: OVCAR-8 ovarian
[7] = test system: SF-268 CNS
[8] = test system: SK-OV-3 ovarian
[9] = test system: A498 renal
[10] = test system: HL-60(TB) leukemia

| Compound | TGI [1] | TGI [2] | TGI [3] | TGI [4] | TGI [5] | TGI [6] | TGI [7] | TGI [8] | GI50 [9] | TGI [9] | GI50 [1] | GI50 [2] | GI50 [3] | GI50 [4] | GI50 [5] | GI50 [6] | GI50 [7] | GI50 [8] | GI50 [10] | TGI [10] |
| --- | --- | --- | --- | --- | --- | --- | --- | --- | --- | --- | --- | --- | --- | --- | --- | --- | --- | --- | --- | --- |
| CCOC(=O)C(=O)Nc1c(C)cccc1C | > 100 µM | > 100 µM | > 100 µM | > 100 µM | > 100 µM | > 100 µM | > 100 µM | > 100 µM |  |  |  |  |  |  |  |  |  |  |  |  |
| CC(=O)OCC1OC(n2ccc(=O)[nH]c2=O)C(OC(C)=O)C1OC(C)=O (centres undefined) | > 100 µM | > 100 µM | > 100 µM | > 100 µM | > 100 µM | > 100 µM | > 100 µM | > 100 µM | > 100 µM | > 100 µM | > 100 µM | > 100 µM | > 100 µM | > 100 µM | > 100 µM | > 100 µM | > 100 µM | > 100 µM |  |  |
| C[C@@H]1COCCN1c1cc(C2(S(C)(=N)=O)CC2)nc(-c2ccnc3[nH]ccc23)n1 (some centres undefined) | 25.5 µM |  | > 100 µM | 36.1 µM | 23.7 µM | 58.5 µM | 39.6 µM | 56.4 µM | 0.146 µM | 1.69 µM | 2.34 µM |  | 3.98 µM | 2.94 µM | 1.86 µM | 5.41 µM | 6.17 µM | 5.27 µM | 4 µM | > 100 µM |
| CC(=O)[O-].CC(=O)[O-].[NH2-].[Pt+2].c1ccc2cnccc2c1 | > 100 µM |  | 45.8 µM | > 100 µM | > 100 µM | 21.7 µM | > 100 µM | > 100 µM | > 100 µM | > 100 µM | 55.1 µM |  | 16.9 µM | 74.5 µM | 22.3 µM | 3.72 µM | 18.8 µM | > 100 µM | 9.62 µM | 87.5 µM |
| O=C(CSC(=S)N1CCOCC1)Nc1nc2c(s1)CCCC2 |  | > 100 µM | > 100 µM | > 100 µM | > 100 µM | > 100 µM | > 100 µM | > 100 µM |  | > 100 µM |  |  |  |  |  |  |  |  |  | > 100 µM |
| NNC(=O)CCC(=O)NC1C2CC3CC(C2)CC1C3 (centres undefined) | > 100 µM |  | > 100 µM | > 100 µM | > 100 µM | > 100 µM | > 100 µM | > 100 µM |  | > 100 µM |  |  |  |  |  |  |  |  |  | > 100 µM |
| CC[C@H](CC#N)OC(=O)N[C@@H](C)c1cccc(NC(=O)Nc2ccc(-c3cnco3)c(OC)c2)c1 | 0.396 µM |  | > 51.4 µM | 36.8 µM | 71.7 µM | 23.5 µM | 51.3 µM | > 63.8 µM | 0.138 µM | 20.8 µM | 0.0696 µM |  | 0.119 µM | 0.0856 µM | 14.1 µM | 0.0612 µM | 0.074 µM | 0.0722 µM | 0.184 µM | 38.5 µM |
| CCCCCCCCCc1cc(=O)c2ccc(O)cc2o1 | 81.8 µM | > 100 µM |  | > 100 µM | > 100 µM | > 100 µM | > 100 µM | > 100 µM |  |  |  |  |  |  |  |  |  |  |  | 38.2 µM |
| CC(=O)n1c2ccccc2c2nc3nc(Oc4ccc(C)cc4)c4ccccc4c3cc21 | > 100 µM | > 100 µM | > 100 µM | > 100 µM | > 100 µM | > 100 µM | > 100 µM | > 100 µM |  |  |  |  |  |  |  |  |  |  |  |  |
| O=C(O)c1cc(=O)c2[nH]c3ccccc3c2s1 | > 100 µM | > 100 µM | > 100 µM | > 100 µM | > 100 µM | > 100 µM | > 100 µM | > 100 µM |  |  |  |  |  |  |  |  |  |  |  | > 100 µM |
| CCCCn1cnc2c(SC)ncnc21 | > 100 µM | > 100 µM | > 100 µM | > 100 µM | > 100 µM | > 100 µM | > 100 µM | > 100 µM |  | > 100 µM |  |  |  |  |  |  |  |  |  |  |
| Cc1cc(=O)oc2cc3c(cc12)Oc1ccccc1O3 |  | > 10 µM | > 100 µM | > 100 µM | > 100 µM | > 100 µM | > 100 µM | > 100 µM |  | > 100 µM |  |  |  |  |  |  |  |  |  | > 10 µM |
| CCCCCCCCCCCCCCCC(=O)OCC1OC(n2c(O)c(N=NC(N)=S)c3ccc([N+](=O)[O-])cc32)C(OC(C)=O)C1OC(C)=O (centres undefined) | > 100 µM | > 100 µM | > 100 µM | > 100 µM | > 100 µM | > 100 µM | > 100 µM | > 100 µM |  |  |  |  |  |  |  |  |  |  |  | > 100 µM |
| COc1ccc2c(c1)OC(N(C(C)=O)C(C)=O)=C(C#N)C2c1ccc(F)cc1 (centres undefined) |  | > 100 µM | > 100 µM | > 100 µM | > 100 µM | > 100 µM | > 100 µM | > 100 µM | 2.43 µM | > 100 µM |  | 6.37 µM | 0.683 µM | 1.7 µM | 7.93 µM | 3.92 µM | 9.47 µM | 2.47 µM | 0.496 µM | 2.53 µM |
| NC(C(=O)[O-])C(=O)[O-].NC1CCCCC1N.[Pt+4] | 3.99 µM |  | > 100 µM | > 100 µM | > 100 µM | > 100 µM | 6.71 µM | > 100 µM | 11.6 µM | > 100 µM | 1.07 µM |  | 4.41 µM | 8.45 µM | 11.3 µM | > 100 µM | 0.188 µM | 13.2 µM | 5.28 µM | > 100 µM |
| COc1cccc(C2c3cc4c(cc3OC(O)(CO)C2C(=O)O)OCO4)c1 (centres undefined) (tested in a mixture with another compound) |  | > 100 µM | > 100 µM | > 100 µM | > 100 µM | > 100 µM | > 100 µM | > 100 µM |  | > 100 µM |  |  |  |  |  |  |  |  |  | 75.4 µM |
| c1cnc2[nH]cc(-c3csc(-c4cn(CCCCN5CCOCC5)c5ccccc45)n3)c2c1 | 3.52 µM | 4.74 µM | 3.51 µM | 3.7 µM | 5.69 µM |  | 3.71 µM | 5.74 µM |  |  | 1.74 µM | 2.07 µM | 1.81 µM | 1.7 µM | 2.06 µM |  | 1.76 µM | 2.34 µM | 1.96 µM | 3.92 µM |
| Nc1nc2c(c(=O)[nH]1)CN(c1ccc(S(N)(=O)=O)cc1)CN2 | > 100 µM | > 100 µM | > 100 µM | > 100 µM | > 100 µM | > 100 µM | > 100 µM |  |  | > 100 µM |  |  |  |  |  |  |  |  |  |  |
